Data from patent US9056139B2, “Fatty acid-salicylate conjugates with enhanced therapeutic properties” (KEAN UNIVERSITY, priority 2012, dated 2015).

Tested on: HT-29 human adenocarcinoma cells
Assay: Apoptosis induction in Human Adenocarcinoma cells (HT-29)
Assay type: cell-based
Conditions: HT-29 cells, FIG. 18 and FIG. 19

CC/C=C\C/C=C\C/C=C\C/C=C\C/C=C\C/C=C\CCC(=O)Oc1ccccc1C(=O)O [DHASPIR, 2-((4Z,7Z,10Z,13Z,16Z,19Z)-docosa-4,7,10,13,16,19-hexaenoyloxy)benzoic acid]
pro-apoptotic effect: same pro-apoptotic effect as the DHA/acetyl salicylate combination
